Measured values published in patent US20150148551A1, “GENISTEIN FOR REDUCING LEVELS OF STORAGE COMPOUNDS IN THE TREATMENT AND/OR PREVENTION OF LYSOSOMAL STORAGE DISEASES (LSDS)” (3G THERAPEUTICS, INC., priority 2012, published 2015).

Columns and labels:
Type in all cases: cell-based, human
MANBA = assay: DNA microarray, MANBA expression in fibroblasts exposed to genistein; settings: for MANBA fold change Average: 48 h vs DMSO
Description: (§1) The experiments were conducted to characterise the transcriptomic profile of human fibroblast cells exposed to genistein, and in particular to determine the expression of genes encoding lysosomal enzymes involved in metabolism (i.e. synthesis and degradation) of organic substances. The absence or deficiency of these enzymes' activity is responsible for occurrence of various lysosomal storage diseases (LSD) (including MPS). The tested hypothesis assumed that genistein influences the expression of many genes, among which there are genes coding for enzymes required in metabolism of compounds, which are pathologically stored in LSD. The results provide important information regarding genistein action on the molecular level within the range of gene expression modulation by this substance. The experiment was conducted in biological quintuplicates. Human dermal fibroblasts (HDFa) were exposed in vitro for 1, 24 or 48 hours to: 30, 60 or 100 μM of genistein; 0.05% DMSO (K1); or were untreated (control cells) (K2), and total RNA was isolated and analysed.
(§2) Fibroblast cells were grown in Dulbecco (DMEM) medium supplemented with 10% fetal bovine serum (FBS) with the addition of 1% antibiotics and anti-fungal agents at 37° C. in humidified atmosphere of 5% CO2, until the required confluency was obtained.
(§3) To determine the effect of tested compound on the transcriptom of the fibroblast cells, the growth medium was replaced with fresh medium, either non-supplemented (0.05% DMSO), or containing genistein (30, 60 or 100 μM, in 0.05% DMSO). The exposure was done for 1, 24 or 48 hours.
(§4) Total RNA was isolated from fibroblasts using High Pure RNA Isolation Kit according to the protocol and then it was quantitatively evaluated using Quant-It™ RiboGreen® Assay Kit.
(§5) Biotinylated cRNA was prepared using Ambion Total PrepAmp Kit for Illumina arrays.
(§6) Standard hybridization and quantitative image analysis procedures—Illumina hybridization protocol and Illumina scanning protocol, were used.
(§7) Processing of the results was done during data definition, including: background correction (using background subtraction method), normalization (using quantile normalization algorithm with Illumina GenomeStudio software package: gene expression module version 1.9.0) and summarization (using method, which sums the values of signal intensities from a set of probes).

SLC11A2 = assay: DNA microarray, SLC11A2 expression in fibroblasts exposed to genistein; settings: for SLC11A2 fold change Average: 48 h vs DMSO
Description: as §1, §2, §3, §4, §5, §6, §7

CTSF = assay: DNA microarray, CTSF expression in fibroblasts exposed to genistein; settings: for CTSF fold change Average: 48 h vs DMSO
Description: as §1, §2, §3, §4, §5, §6, §7

ST3GAL2 = assay: DNA microarray, ST3GAL2 expression in fibroblasts exposed to genistein
Description: as §1, §2, §3, §4, §5, §6, §7

CLN5 = assay: DNA microarray, CLN5 expression in fibroblasts exposed to genistein; settings: for CLN5 fold change Average: 48 h vs DMSO
Description: as §1, §2, §3, §4, §5, §6, §7

GBA = assay: DNA microarray, GBA expression in fibroblasts exposed to genistein; settings: for GBA fold change Average: 48 h vs DMSO
Description: as §1, §2, §3, §4, §5, §6, §7

ST3GAL4 = assay: DNA microarray, ST3GAL4 expression in fibroblasts exposed to genistein
Description: as §1, §2, §3, §4, §5, §6, §7

GAA = assay: DNA microarray, GAA expression in fibroblasts exposed to genistein; settings: 30 μM, 1 h vs 0.05% DMSO
Description: as §1, §2, §3, §4, §5, §6, §7

SMILES: O=c1c(-c2ccc(O)cc2)coc2cc(O)cc(O)c12 [genistein, 4′,5,7-trihydroxy-3-phenylchromen-4-one]
- MANBA fold change Average 1h30/1hK1 (MANBA; 30 μM, 1 h vs 0.05% DMSO): 1.0095 fold change
- MANBA fold change Average (MANBA; 30 μM): 1.6385 fold change
- MANBA fold change Average 1h60/1hK1 (MANBA; 60 μM, 1 h vs 0.05% DMSO): 1.041 fold change
- MANBA fold change Average (MANBA; 60 μM): 2.173 fold change
- MANBA fold change Average 1h100/1hK1 (MANBA; 100 μM, 1 h vs 0.05% DMSO): 0.9489 fold change
- MANBA fold change Average (MANBA; 100 μM): 2.387 fold change
- SLC11A2 fold change Average 1h30/1hK1 (SLC11A2; 30 μM, 1 h vs 0.05% DMSO): 1.0227 fold change
- SLC11A2 fold change Average (SLC11A2; 30 μM): 1.2196 fold change
- SLC11A2 fold change Average 1h60/1hK1 (SLC11A2; 60 μM, 1 h vs 0.05% DMSO): 1.053 fold change
- SLC11A2 fold change Average (SLC11A2; 60 μM): 1.549 fold change
- SLC11A2 fold change Average 1h100/1hK1 (SLC11A2; 100 μM, 1 h vs 0.05% DMSO): 1.056 fold change
- SLC11A2 fold change Average (SLC11A2; 100 μM): 1.499 fold change
- CTSF fold change Average 1h30/1hK1 (CTSF; 30 μM, 1 h vs 0.05% DMSO): 1.0096 fold change
- CTSF fold change Average (CTSF; 30 μM): 1.417 fold change
- CTSF fold change Average 1h60/1hK1 (CTSF; 60 μM, 1 h vs 0.05% DMSO): 0.9505 fold change
- CTSF fold change Average (CTSF; 60 μM): 1.8 fold change
- CTSF fold change Average 1h100/1hK1 (CTSF; 100 μM, 1 h vs 0.05% DMSO): 0.9458 fold change
- CTSF fold change Average (CTSF; 100 μM): 2.066 fold change
- ST3GAL2 fold change Average 1h30/1hK1 (ST3GAL2; 30 μM, 1 h vs 0.05% DMSO): 1.155 fold change
- ST3GAL2 fold change Average 24h30/24hK1 (ST3GAL2; 30 μM, 24 h vs 0.05% DMSO): 0.7505 fold change
- ST3GAL2 fold change Average 48h30/48hK1 (ST3GAL2; 30 μM, 48 h vs 0.05% DMSO): 0.797 fold change
- ST3GAL2 fold change Average 1h60/1hK1 (ST3GAL2; 60 μM, 1 h vs 0.05% DMSO): 1.467 fold change
- ST3GAL2 fold change Average 24h60/24hK1 (ST3GAL2; 60 μM, 24 h vs 0.05% DMSO): 0.5068 fold change
- ST3GAL2 fold change Average 1h100/1hK1 (ST3GAL2; 100 μM, 1 h vs 0.05% DMSO): 1.338 fold change
- ST3GAL2 fold change Average 24h100/24hK1 (ST3GAL2; 100 μM, 24 h vs 0.05% DMSO): 0.6299 fold change
- ST3GAL2 fold change Average 48h100/48hK1 (ST3GAL2; 100 μM, 48 h vs 0.05% DMSO): 0.7215 fold change
- CLN5 fold change Average 1h30/1hK1 (CLN5; 30 μM, 1 h vs 0.05% DMSO): 1.0505 fold change
- CLN5 fold change Average (CLN5; 30 μM): 1.3471 fold change
- CLN5 fold change Average 1h60/1hK1 (CLN5; 60 μM, 1 h vs 0.05% DMSO): 1.028 fold change
- CLN5 fold change Average (CLN5; 60 μM): 1.79 fold change
- CLN5 fold change Average 1h100/1hK1 (CLN5; 100 μM, 1 h vs 0.05% DMSO): 1.05 fold change
- CLN5 fold change Average (CLN5; 100 μM): 2.125 fold change
- GBA fold change Average 1h30/1hK1 (GBA; 30 μM, 1 h vs 0.05% DMSO): 0.9138 fold change
- GBA fold change Average (GBA; 30 μM): 1.257 fold change
- GBA fold change Average 1h60/1hK1 (GBA; 60 μM, 1 h vs 0.05% DMSO): 1.033 fold change
- GBA fold change Average (GBA; 60 μM): 1.467 fold change
- GBA fold change Average 1h100/1hK1 (GBA; 100 μM, 1 h vs 0.05% DMSO): 0.9469 fold change
- GBA fold change Average (GBA; 100 μM): 1.606 fold change
- ST3GAL4 fold change Average 1h30/1hK1 (ST3GAL4; 30 μM, 1 h vs 0.05% DMSO): 0.9885 fold change
- ST3GAL4 fold change Average 24h30/24hK1 (ST3GAL4; 30 μM, 24 h vs 0.05% DMSO): 0.782 fold change
- ST3GAL4 fold change Average 48h30/48hK1 (ST3GAL4; 30 μM, 48 h vs 0.05% DMSO): 1.065 fold change
- ST3GAL4 fold change Average 1h60/1hK1 (ST3GAL4; 60 μM, 1 h vs 0.05% DMSO): 0.9205 fold change
- ST3GAL4 fold change Average 24h60/24hK1 (ST3GAL4; 60 μM, 24 h vs 0.05% DMSO): 0.9205 fold change
- ST3GAL4 fold change Average 48h61/48hK1 (ST3GAL4; 60 μM, 48 h vs 0.05% DMSO): 0.9931 fold change
- ST3GAL4 fold change Average 1h100/1hK1 (ST3GAL4; 100 μM, 1 h vs 0.05% DMSO): 0.8637 fold change
- ST3GAL4 fold change Average 24h100/24hK1 (ST3GAL4; 100 μM, 24 h vs 0.05% DMSO): 0.6646 fold change
- ST3GAL4 fold change Average 48h100/48hK1 (ST3GAL4; 100 μM, 48 h vs 0.05% DMSO): 0.8911 fold change
- GAA fold change Average 1h30/1hK1 (GAA): 0.9686 fold change
